# Source: ChEMBL document CHEMBL6092220 (J Med Chem, 2024)
# Calls of active or inactive are those of the source. The calls are words filed in the database; no cut-off is given here.
# Legend:
# [1] = Drug concentration in female CB17 SCID mouse spleen at 5 mg/kg, iv measured at 72 hrs by LC-MS/MS analysis; format: ADME, organism-based; conditions: read-out: Ct
# [2] = Antitumor activity against human MOLM16 cells xenografted in mouse assessed as tumor regression at 25 mg/kg, iv administered twice daily; format: functional, MOLM-16
# [3] = Antiproliferative activity against human SUPM2 cells assessed as cell growth inhibition incubated for 4 days by celltiter-glo assay; format: functional, cell-based; conditions: SUP-M2, 96 h
# [4] = target: T1, Protein cereblon/Signal transducer and activator of transcription 6 (Homo sapiens) (UniProt P42226+Q96SW2); assay: PROTAC activity at STAT6/CRBN in human SU-DHL-1 cells assessed as reduction in STAT6 level incubated for 20 hrs by Western blot analysis; format: cell-based
# [5] = Drug concentration in female CB17 SCID mouse tumor at 5 mg/kg, iv measured at 1 hr by LC-MS/MS analysis; format: ADME, organism-based, Neoplasm; conditions: read-out: Ct
# [6] = target: Signal transducer and activator of transcription 4 (Homo sapiens, UniProt Q14765); assay: Binding affinity to STAT4 (unknown origin) by FP assay
# hERG (KCNH2) = hERG (KCNH2) (Homo sapiens, UniProt Q12809); assay: Inhibition of hERG at 3 uM relative to control; format: toxicity
# [7] = target: T2, Protein cereblon/Signal transducer and activator of transcription 4 (Homo sapiens, UniProt Q96SW2+Q14765); assay: PROTAC activity at STAT4/CRBN in human SU-DHL-1 cells assessed as reduction in STAT4 level incubated for 20 hrs by Western blot analysis; format: cell-based; conditions: dose <= 40.0 µM
# [8] = target: T3, Protein cereblon/Signal transducer and activator of transcription 3 (Homo sapiens, UniProt P40763+Q96SW2); assay: PROTAC activity at his-SUMO-tagged STAT3 (127 to 688 residues)/CRBN in human PBMC cells assessed as reduction in STAT3 level at 0.1 to 4000 nM incubated for 20 hrs by Western blot analysis relative to control; format: cell-based; conditions: dose 0.1-4000 nM
# [9] = Drug concentration in female CB17 SCID mouse spleen at 5 mg/kg, iv measured at 3 hrs by LC-MS/MS analysis; format: ADME, organism-based; conditions: read-out: Ct
# [10] = Drug concentration in female CB17 SCID mouse liver at 5 mg/kg, iv measured at 72 hrs by LC-MS/MS analysis; format: ADME, organism-based; conditions: read-out: Ct
# [11] = target: T3, Protein cereblon/Signal transducer and activator of transcription 3; assay: PROTAC activity at his-SUMO-tagged STAT3 (127 to 688 residues)/CRBN in human HeLa cells assessed as induction of STAT3 degradation incubated for 24 hrs by TECAN SPARK microplate reader analysis; format: cell-based
# [12] = Clearance in Sprague-Dawley rat assessed as hepatic blood flow at 5 mg/kg, iv; format: ADME, organism-based; conditions: in vivo
# [13] = AUC (0 to t) in Beagle dog at 1 mg/kg, iv; format: ADME, organism-based, Canis lupus familiaris; conditions: in vivo
# [14] = target: T4, Protein cereblon/Signal transducer and activator of transcription 3 (Mus musculus) (UniProt P42227+Q8C7D2); assay: In-vivo PROTAC activity at STAT3/CRBN in female CB17 SCID mouse assessed as STAT3 depletion liver at 5 mg/kg, iv measured upto 72 hrs by immunobloting analysis; format: functional, organism-based
# [15] = Stability in Non human primate Hepatocyte assessed as half life; format: ADME, cell-based; conditions: hepatocytes
# [16] = target: T3, Protein cereblon/Signal transducer and activator of transcription 3; assay: PROTAC activity at his-SUMO-tagged STAT3 (127 to 688 residues)/CRBN in human MOLM16 cells assessed as reduction in STAT3 level upto 40 uM incubated for 4 hrs by Western blot analysis relative to control; format: cell-based; set-up: scale not given: the % may be the effect or the level left
# [17] = Plasma protein binding in dog assessed as unbound fraction at 10 uM; format: ADME, cell-free, Canis lupus familiaris
# [18] = target: T2, Protein cereblon/Signal transducer and activator of transcription 4; assay: PROTAC activity at STAT4/CRBN in human MOLM16 cells assessed as reduction in STAT4 level incubated for 4 hrs by Western blot analysis; format: cell-based
# [19] = target: Signal transducer and activator of transcription 6 (Homo sapiens, UniProt P42226); assay: Binding affinity to STAT6 (unknown origin) by FP assay
# [20] = Stability in Non human primate plasma assessed as half life; format: ADME, cell-free
# [21] = Clearance in ICR mouse at 5 mg/kg, iv; format: ADME, organism-based; conditions: in vivo
# [22] = Drug concentration in female CB17 SCID mouse plasma at 5 mg/kg, iv measured at 72 hrs by LC-MS/MS analysis; format: ADME, organism-based
# [23] = target: T4, Protein cereblon/Signal transducer and activator of transcription 3 (Mus musculus); assay: In-vivo PROTAC activity at STAT3/CRBN in female CB17 SCID mouse assessed as STAT3 depletion spleen at 5 mg/kg, iv measured at 1 hr by immunobloting analysis; format: functional, organism-based
# Cytochrome P450 2C9 = Cytochrome P450 2C9 (Homo sapiens, UniProt P11712); assay: Inhibition of CYP2C9 (unknown origin); format: ADME
# [24] = Stability in mouse plasma assessed as parent compound remaining at […]; format: ADME, cell-free; conditions: read-out: Stability
# [25] = target: T3, Protein cereblon/Signal transducer and activator of transcription 3; assay: PROTAC activity at his-SUMO-tagged STAT3 (127 to 688 residues)/CRBN in human SU-DHL-1 cells assessed as reduction in STAT3 level upto 40 uM incubated for 20 hrs by Western blot analysis relative to control; format: cell-based; set-up: scale not given: the % may be the effect or the level left
# [26] = target: Signal transducer and activator of transcription 3 (Homo sapiens, UniProt P40763); assay: Binding affinity to STAT3 (unknown origin) assessed as maximum inhibition by FP assay relative to control
# [27] = target: T1, Protein cereblon/Signal transducer and activator of transcription 6 (Homo sapiens); assay: PROTAC activity at STAT6/CRBN in human PBMC cells assessed as reduction in STAT6 level upto 40 uM incubated for 20 hrs by Western blot analysis; format: cell-based
# [28] = Cmax in ICR mouse at 5 mg/kg, iv; format: ADME, organism-based; conditions: in vivo
# Cytochrome P450 2D6 = Cytochrome P450 2D6 (Homo sapiens, UniProt P10635); assay: Inhibition of CYP2D6 (unknown origin); format: ADME
# [29] = target: T3, Protein cereblon/Signal transducer and activator of transcription 3; assay: PROTAC activity at his-SUMO-tagged STAT3 (127 to 688 residues)/CRBN in human Pfeiffer cells assessed as reduction in STAT3 level upto 40 uM incubated for 4 hrs by Western blot analysis relative to control; format: cell-based; set-up: scale not given: the % may be the effect or the level left
# [30] = Stability in dog Hepatocyte assessed as half life; format: ADME, cell-based, Canis lupus familiaris; conditions: hepatocytes
# [31] = target: Protein cereblon/Signal transducer and activator of transcription 5B (Homo sapiens) (UniProt P51692+Q96SW2); assay: PROTAC activity at STAT5B/CRBN in human PBMC cells assessed as reduction in STAT5B level upto 40 uM incubated for 20 hrs by Western blot analysis; format: cell-based
# [32] = Apparent volume of distribution in ICR mouse at 5 mg/kg, iv; format: ADME, organism-based; conditions: in vivo, read-out: Vz
# [33] = target: Protein cereblon/Signal transducer and activator of transcription 2 (Homo sapiens) (UniProt Q96SW2+P52630); assay: PROTAC activity at STAT2/CRBN in human MOLM16 cells assessed as reduction in STAT2 level upto 40 uM incubated for 4 hrs by Western blot analysis; format: cell-based
# [34] = target: T4, Protein cereblon/Signal transducer and activator of transcription 3 (Mus musculus); assay: In-vivo PROTAC activity at STAT3/CRBN in female CB17 SCID mouse assessed as reduction in STAT3 level tumor at 5 mg/kg, iv measured at 72 hrs by immunobloting analysis; format: functional, organism-based; set-up: scale not given: the % may be the effect or the level left
smiles,measurement,setting,value
COC(=O)N1CC[C@H]2CC[C@@H](C(=O)N[C@@H](CCC(N)=O)C(=O)N[C@@H](Cc3ccc(F)c(F)c3)C(=O)N3CCC(CCC#Cc4cccc5c4CN(C4CCC(=O)NC4=O)C5=O)CC3)N2C(=O)[C@@H](NC(=O)c2cc3cc(C(F)(F)P(=O)(O)O)ccc3s2)C1 (some centres not stated),concentration at 72 h,[1],568 ng/g
same,Activity,[2],100%
same,IC50,[3],390 nM
same,Activity,[4],Active
same,concentration at 1 h,[5],4810 ng/g
same,IC50,[6],360 nM
same,inhibition at 3 µM,hERG (KCNH2),1.3%
same,Activity,[7],Dose-dependent-effect
same,Emax,[8],> 95%
same,concentration at 3 h,[9],1920 ng/g
same,concentration at 72 h,[10],598 ng/g
same,DC50,[11],500 nM
same,QH,[12],2.6%
same,AUC(0-t),[13],10700 ng·h/mL
same,Activity,[14],Active
same,half-life,[15],> 2 h
same,Activity,[16],> 95%
same,Fu,[17],1.7%
same,Activity,[18],inactive
same,IC50,[19],> 10000 nM
same,half-life,[20],> 2 h
same,clearance,[21],3.06 mL/h/kg
same,concentration at 72 h,[22],8.43 µg/mL
same,Activity,[23],> 70%
same,IC50,Cytochrome P450 2C9,> 10000 nM
same,remaining at 2 h,[24],101%
same,Activity,[25],> 95%
same,Imax,[26],100%
same,Activity,[27],inactive
same,Cmax,[28],130 µg/mL
same,IC50,Cytochrome P450 2D6,> 10000 nM
same,Activity,[29],> 95%
same,t1/2,[30],> 2 h
same,Activity,[31],inactive
same,Vd,[32],0.1 L/kg
same,Activity,[33],inactive
same,Activity,[34],> 90%
